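Dose response: 5 concentrations. Exposure: 48 h. Format: 96-well plates. Endpoint: linear interpolation; highest concentration if not reached. TGI marks complete inhibition of growth.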
Assays:
Test in all cases: NCI-60 cell line screen, 48 h
PC-3 prostate = test system: PC-3 prostate
SF-268 CNS = test system: SF-268 CNS
SK-OV-3 ovarian = test system: SK-OV-3 ovarian
SN12C renal = test system: SN12C renal
M14 melanoma = test system: M14 melanoma
HS 578T breast = test system: HS 578T breast
RPMI-8226 leukemia = test system: RPMI-8226 leukemia
RXF 393 renal = test system: RXF 393 renal
DU-145 prostate = test system: DU-145 prostate
KM12 colon = test system: KM12 colon
A549 NSCLC = test system: A549 NSCLC
EKVX NSCLC = test system: EKVX NSCLC
UACC-62 melanoma = test system: UACC-62 melanoma
HL-60(TB) leukemia = test system: HL-60(TB) leukemia
NCI-H460 lung = test system: NCI-H460 lung
SW-620 colon = test system: SW-620 colon
SK-MEL-5 melanoma = test system: SK-MEL-5 melanoma
SK-MEL-2 melanoma = test system: SK-MEL-2 melanoma
NCI-H522 lung = test system: NCI-H522 lung
NCI/ADR-RES ovarian = test system: NCI/ADR-RES ovarian
TK-10 renal = test system: TK-10 renal
OVCAR-8 ovarian = test system: OVCAR-8 ovarian
IGROV1 ovarian = test system: IGROV1 ovarian
MDA-MB-231 breast = test system: MDA-MB-231 breast
HCT-15 colon = test system: HCT-15 colon
BT-549 breast = test system: BT-549 breast
COLO 205 colon = test system: COLO 205 colon
U251 CNS = test system: U251 CNS
NCI-H23 lung = test system: NCI-H23 lung
MALME-3M melanoma = test system: MALME-3M melanoma
OVCAR-5 ovarian = test system: OVCAR-5 ovarian
786-0 renal = test system: 786-0 renal
CCRF-CEM leukemia = test system: CCRF-CEM leukemia
SNB-75 CNS = test system: SNB-75 CNS
CAKI-1 renal = test system: CAKI-1 renal
MDA-N = test system: MDA-N
HCT-116 colon = test system: HCT-116 colon
MDA-MB-435 = test system: MDA-MB-435
HT29 colon = test system: HT29 colon
ACHN renal = test system: ACHN renal
SF-295 CNS = test system: SF-295 CNS
HOP-92 NSCLC = test system: HOP-92 NSCLC
SF-539 CNS = test system: SF-539 CNS
MCF7 breast = test system: MCF7 breast
NCI-H226 lung = test system: NCI-H226 lung
SNB-19 CNS = test system: SNB-19 CNS
T-47D breast = test system: T-47D breast
UO-31 renal = test system: UO-31 renal
UACC-257 melanoma = test system: UACC-257 melanoma
OVCAR-3 ovarian = test system: OVCAR-3 ovarian
LOX IMVI melanoma = test system: LOX IMVI melanoma
MOLT-4 leukemia = test system: MOLT-4 leukemia
OVCAR-4 ovarian = test system: OVCAR-4 ovarian
K-562 leukemia = test system: K-562 leukemia
SR leukemia = test system: SR leukemia
SK-MEL-28 melanoma = test system: SK-MEL-28 melanoma
HOP-62 NSCLC = test system: HOP-62 NSCLC
HCC-2998 colon = test system: HCC-2998 colon

Measured: TGI

OC(c1ccccc1)(c1cccnc1)C(O)(c1ccccc1)c1cccnc1 (stereo unspecified)
> 100 µM: PC-3 prostate | SF-268 CNS | SK-OV-3 ovarian | SN12C renal | M14 melanoma | HS 578T breast | RPMI-8226 leukemia | RXF 393 renal | DU-145 prostate | KM12 colon | A549 NSCLC | EKVX NSCLC | UACC-62 melanoma | HL-60(TB) leukemia | NCI-H460 lung | SW-620 colon | SK-MEL-5 melanoma | SK-MEL-2 melanoma | NCI-H522 lung | NCI/ADR-RES ovarian | TK-10 renal | OVCAR-8 ovarian | IGROV1 ovarian | MDA-MB-231 breast | HCT-15 colon | BT-549 breast | COLO 205 colon | U251 CNS | NCI-H23 lung | MALME-3M melanoma | OVCAR-5 ovarian | 786-0 renal | CCRF-CEM leukemia | SNB-75 CNS | CAKI-1 renal | MDA-N | HCT-116 colon | MDA-MB-435 | HT29 colon | ACHN renal | SF-295 CNS | HOP-92 NSCLC | SF-539 CNS | MCF7 breast | NCI-H226 lung | SNB-19 CNS | T-47D breast | UO-31 renal | UACC-257 melanoma

CCOP(=O)(OCC)C(C)(C)OC(=O)NC#N
> 100 µM: PC-3 prostate | SF-268 CNS | SK-OV-3 ovarian | SN12C renal | M14 melanoma | HS 578T breast | RPMI-8226 leukemia | RXF 393 renal | DU-145 prostate | KM12 colon | A549 NSCLC | EKVX NSCLC | OVCAR-3 ovarian | LOX IMVI melanoma | UACC-62 melanoma | HL-60(TB) leukemia | NCI-H460 lung | SW-620 colon | SK-MEL-5 melanoma | MOLT-4 leukemia | OVCAR-4 ovarian | SK-MEL-2 melanoma | NCI/ADR-RES ovarian | TK-10 renal | OVCAR-8 ovarian | IGROV1 ovarian | K-562 leukemia | SR leukemia | MDA-MB-231 breast | HCT-15 colon | BT-549 breast | COLO 205 colon | U251 CNS | NCI-H23 lung | MALME-3M melanoma | OVCAR-5 ovarian | 786-0 renal | CCRF-CEM leukemia | SK-MEL-28 melanoma | HOP-62 NSCLC | SNB-75 CNS | CAKI-1 renal | MDA-N | HCT-116 colon | MDA-MB-435 | HT29 colon | ACHN renal | SF-295 CNS | HOP-92 NSCLC | SF-539 CNS | MCF7 breast | NCI-H226 lung | SNB-19 CNS | HCC-2998 colon | T-47D breast | UO-31 renal | UACC-257 melanoma
